This note sets out measurements from PMC9530963, “A cathelicidin antimicrobial peptide from Hydrophis cyanocinctus inhibits Zika virus infection by downregulating expression of a viral entry factor” (The Journal of Biological Chemistry, 2022).

The test system of assay [1] is ZIKV. Nature of the assay: Susceptibility of A549 cells to ZIKV (peptide pretreatment). Type of assay: cell-based, ZIKV strain PRVABC59. The conditions noted are these: 1.25, 2.5, and 5 μM, 2 h before ZIKV MOI = 1; 24 h; Western blot. As for the experimental part:
Figure 4 Hc-CATH downregulates AXL in A549 cell.A, schematic diagram of B and C. B, A549 cells were seeded in 24-well plates (5 × 10^4 cells/well) and cultured in DMEM containing 2% FBS. Hc-CATH (1.25, 2.5, and 5 μM) or same volume of PBS (peptide solvent) was added to cells and incubated at 37 °C for 24 h. The level of AXL was tested by Western blot. C, A549 cells were seeded in 8-well cover slip chambers (5 × 10^4 cells/well) and cultured in DMEM containing 2% FBS. Hc-CATH (1.25, 2.5, and 5 μM) or PBS was added to cells and incubated at 37 °C for 24 h. The level of AXL was tested by immunofluorescence staining. The scale bar represents 50 μm. D, schematic diagram of E and G. E and G, A549 cells were seeded in 24-well plates (5 × 10^4 cells/well) and cultured in DMEM containing 2% FBS. Hc-CATH (1.25, 2.5, and 5 μM) or PBS was added to cells and incubated at 37 °C for 2 h. Cells were washed with PBS and incubated with ZIKV (MOI = 1). After incubation at 37 °C for 2 h, cells were washed with PBS and cultured in DMEM containing 2% FBS.
Vero, A549, or U251 cells were incubated with peptide or PBS at 37 °C for 2 h. […]
The effect of Hc-CATH on AXL was further confirmed in A549 and U251 cells. A549 or U251 cells were incubated with Hc-CATH (1.25, 2.5, and 5 μM) or PBS at 37 °C for 24 h, and the level of AXL was detected by WB and IF, respectively. […]
A general note: A western blot detects proteins with antibodies after separation by electrophoresis.

The subject of assay [2] is ZIKV. Briefly: ZIKV replication stage, Vero cells (peptide added after infection). Type of assay: cell-based, ZIKV strain PRVABC59. The note with it: 2.5 μM added after 2 h ZIKV infection (MOI = 1), 48 h, relative to PBS. As for the experimental part:
B–I, Vero (B–G), A549 (H), or U251 (I) cells were incubated with ZIKV (MOI = 1) at 37 °C for 2 h, washed with PBS, and transferred with fresh DMEM containing 2% FBS and Hc-CATH (2.5 μM), AC5 (2.5 μM), LL-37 (2.5 μM), or PBS (solvent of peptide). After culture at 37 °C for 48 h, intracellular ZIKV RNA (B), NS3 protein (C, D, H, and I), E protein level (E, the scale bar represents 50 μm), and extracellular ZIKV titer (F and G) were detected by qPCR, Western blot, immunofluorescence staining, and plaque-forming assay, respectively.
Vero cells were incubated with ZIKV (MOI = 1) at 37 °C for 2 h, washed three times with PBS, and transferred with fresh DMEM containing 2% FBS and Hc-CATH (2.5 μM), AC5 (2.5 μM), LL-37 (2.5 μM), or PBS. After culture at 37 °C for 48 h, intracellular ZIKV RNA, NS3 protein, E protein, and extracellular ZIKV titer were detected by qPCR, WB, IF, and plaque-forming assay, respectively. The effect of Hc-CATH on ZIKV replication stage was further tested in A549 and U251 cells under the same condition, and intracellular ZIKV NS3 protein was detected by WB.

In the next assay the test system is type I IFN signaling. Nature of the assay: Type I IFN signaling in U251 cells (qPCR, Western blot). Type of assay: cell-based, Homo sapiens. As to the method:
Figure 7 Hc-CATH-induced AXL downregulation reverses the negative regulation of AXL on type I IFN signaling.A, schematic diagram of B and C. B, effect of Hc-CATH on type I IFN signaling. U251 cells were cultured in the presence of Hc-CATH (2.5 μM) or same volume of PBS (solvent of peptide). After culture at 37 °C for 24 h, type I IFN genes were tested by qPCR. C, effect of Hc-CATH on type I IFN signaling upon ZIKV challenge. U251 cells were cultured in the presence of Hc-CATH (2.5 μM) or PBS (solvent of peptide) at 37 °C for 2 h. Cells were washed with PBS and incubated with ZIKV (MOI = 1) at 37 °C for 2 h. Cell were washed with PBS again and cultured in DMEM containing 2% FBS at 37 °C for 24 h. Type I IFN genes were tested by qPCR. D, schematic diagram of E–G. E and F, U251 cells were cultured in the presence of Hc-CATH (2.5 μM) or PBS (solvent of peptide) at 37 °C for 12 h. Cells were stimulated with SeV (MOI = 1) at 37 °C for 12 h. Type I IFN gene was tested by qPCR (E). […] DMEM, Dulbecco’s modified Eagle’s medium; FBS, fetal bovine serum; IFN, interferon; MOI, multiplicity of infection; qPCR, quantitative PCR; SeV, Sendai virus; ZIKV, Zika virus.
U251 cells were cultured with Hc-CATH (2.5 μM) or PBS at 37 °C for 24 h, and cells were collected for testing type I IFN signaling gene and protein by qPCR and WB, respectively. Upon ZIKV challenge, U251 cells were incubated with Hc-CATH (2.5 μM) or PBS at 37 °C for 2 h and washed three times with PBS. Cells were then incubated with ZIKV (MOI = 1) for 2 h and washed with PBS. After culture for 24 h, type I IFN signaling genes were tested by qPCR. Upon SeV challenge, U251 cells were incubated with Hc-CATH (2.5 μM) or PBS at 37 °C for 12 h, cells were then stimulated with SeV or same volume of PBS for 12 h, and type I IFN signaling gene and protein were tested by qPCR and WB, respectively.
Background: Real-time PCR tracks product formation cycle by cycle.

On to “KFFKRLLKSVRRAVKKFRKKPRLIGLSTLL [Hc-CATH, cathelicidin antimicrobial peptide identified from the sea snake Hydrophis cyanocinctus]”, for which the “susceptibility of A549 cells to ZIKV (NS3 protein)” value with ZIKV [1] is listed as “decreased the susceptibility”. In addition, in the assay on ZIKV [2], the “intracellular ZIKV RNA, NS3 protein, E protein, extracellular ZIKV titer, peptide maintained after infection” value is listed as “did not reduce”. In the assay with type I IFN signaling (2.5 μM 2 h, then ZIKV MOI = 1, 24 h, qPCR), the “levels of type I IFN genes in response to ZIKV infection” value is listed as “upregulated the levels of type I IFN genes”. Also, the “IFN-β expression in response to SeV stimulation” value in the assay on type I IFN signaling (2.5 μM 12 h, then SeV MOI = 1 12 h, qPCR, compared with PBS) was “significantly increased IFN-β expression”. Besides, the “levels of type I IFN genes” value in the assay on type I IFN signaling (2.5 μM, 24 h, qPCR) was “significantly increased the levels of type I IFN genes”. Moreover, the “phosphorylation of TANK-binding kinase 1 and IRF3” value in the assay with type I IFN signaling (2.5 μM, Western blot, relative to PBS) is “increased the phosphorylation of TANK-binding kinase 1 and IRF3”.
